Reference: the CheMixHub viscosity set
± gives the uncertainty stated by the source.

Test: xn = mol fraction of the nth substance listed

Clc1ccccc1 + Cc1ccccc1
Conditions	viscosity [mPa·s]
293.15 K, 101 kPa, x1 = 0.0994	0.6134 ± 0.016
293.15 K, 101 kPa, x1 = 0.2021	0.635 ± 0.017
293.15 K, 101 kPa, x1 = 0.2979	0.6571 ± 0.017
293.15 K, 101 kPa, x1 = 0.3973	0.6775 ± 0.018
293.15 K, 101 kPa, x1 = 0.5013	0.7014 ± 0.019
293.15 K, 101 kPa, x1 = 0.6023	0.7232 ± 0.019
293.15 K, 101 kPa, x1 = 0.7024	0.7433 ± 0.02
293.15 K, 101 kPa, x1 = 0.8007	0.7655 ± 0.02
293.15 K, 101 kPa, x1 = 0.9047	0.786 ± 0.021
293.15 K, 101 kPa, x2 = 0.2	0.751 ± 0.013
293.15 K, 101 kPa, x2 = 0.4	0.709 ± 0.012
293.15 K, 101 kPa, x2 = 0.6	0.667 ± 0.012
293.15 K, 101 kPa, x2 = 0.8	0.626 ± 0.011
294.55 K, 101.33 kPa, x1 = 0.2	0.6717 ± 0.0078
294.55 K, 101.33 kPa, x1 = 0.7	0.7968 ± 0.0092
294.75 K, 101.33 kPa, x1 = 0.3	0.6949 ± 0.0081
294.85 K, 101.33 kPa, x1 = 0.1	0.6367 ± 0.0074
295.05 K, 101.33 kPa, x1 = 0.4	0.7214 ± 0.0084
298.15 K, 101 kPa, x1 = 0.0994	0.5773 ± 0.015
298.15 K, 101 kPa, x1 = 0.2021	0.5971 ± 0.016
298.15 K, 101 kPa, x1 = 0.2979	0.6179 ± 0.016
298.15 K, 101 kPa, x1 = 0.3973	0.6368 ± 0.017
298.15 K, 101 kPa, x1 = 0.5013	0.6596 ± 0.017
298.15 K, 101 kPa, x1 = 0.6023	0.6799 ± 0.018
298.15 K, 101 kPa, x1 = 0.7024	0.6984 ± 0.018
298.15 K, 101 kPa, x1 = 0.8007	0.7195 ± 0.019
298.15 K, 101 kPa, x1 = 0.9047	0.7386 ± 0.019
298.15 K, 101 kPa, x2 = 0.101	0.7515 ± 0.0078
298.15 K, 101 kPa, x2 = 0.2035	0.7315 ± 0.0077
298.15 K, 101 kPa, x2 = 0.243	0.687 ± 0.007
298.15 K, 101 kPa, x2 = 0.3026	0.7086 ± 0.0076
298.15 K, 101 kPa, x2 = 0.4005	0.6929 ± 0.0075
298.15 K, 101 kPa, x2 = 0.45	0.646 ± 0.007
298.15 K, 101 kPa, x2 = 0.5004	0.6721 ± 0.0074
298.15 K, 101 kPa, x2 = 0.6014	0.6486 ± 0.0073
298.15 K, 101 kPa, x2 = 0.643	0.608 ± 0.006
298.15 K, 101 kPa, x2 = 0.7008	0.6321 ± 0.0072
298.15 K, 101 kPa, x2 = 0.803	0.577 ± 0.006
298.15 K, 101 kPa, x2 = 0.8048	0.6088 ± 0.0071
298.15 K, 101 kPa, x2 = 0.8995	0.592 ± 0.007
303.15 K, 101 kPa, x1 = 0.0994	0.5443 ± 0.015
303.15 K, 101 kPa, x1 = 0.2021	0.5628 ± 0.015
303.15 K, 101 kPa, x1 = 0.2979	0.5824 ± 0.015
303.15 K, 101 kPa, x1 = 0.3973	0.5999 ± 0.016
303.15 K, 101 kPa, x1 = 0.5013	0.6212 ± 0.017
303.15 K, 101 kPa, x1 = 0.6023	0.6405 ± 0.017
303.15 K, 101 kPa, x1 = 0.7024	0.6579 ± 0.017
303.15 K, 101 kPa, x1 = 0.8007	0.6779 ± 0.018
303.15 K, 101 kPa, x1 = 0.9047	0.6957 ± 0.018
303.15 K, 101 kPa, x2 = 0.0961	0.6999 ± 0.0062
303.15 K, 101 kPa, x2 = 0.101	0.7125 ± 0.0076
303.15 K, 101 kPa, x2 = 0.193	0.6791 ± 0.006
303.15 K, 101 kPa, x2 = 0.2035	0.6925 ± 0.0075
303.15 K, 101 kPa, x2 = 0.2907	0.6641 ± 0.0059
303.15 K, 101 kPa, x2 = 0.3026	0.6713 ± 0.0074
303.15 K, 101 kPa, x2 = 0.3894	0.6454 ± 0.0058
303.15 K, 101 kPa, x2 = 0.4005	0.6547 ± 0.0073
303.15 K, 101 kPa, x2 = 0.4889	0.63 ± 0.0056
303.15 K, 101 kPa, x2 = 0.5004	0.637 ± 0.0072
303.15 K, 101 kPa, x2 = 0.5893	0.6109 ± 0.0055
303.15 K, 101 kPa, x2 = 0.6014	0.6131 ± 0.0071
303.15 K, 101 kPa, x2 = 0.6906	0.5935 ± 0.0054
303.15 K, 101 kPa, x2 = 0.7008	0.5992 ± 0.007
303.15 K, 101 kPa, x2 = 0.7928	0.5753 ± 0.0052
303.15 K, 101 kPa, x2 = 0.8048	0.577 ± 0.0069
303.15 K, 101 kPa, x2 = 0.8959	0.5561 ± 0.0051
303.15 K, 101 kPa, x2 = 0.8995	0.5584 ± 0.0068
303.25 K, 101.33 kPa, x1 = 0.7	0.7203 ± 0.0083
303.35 K, 101.33 kPa, x1 = 0.3	0.6272 ± 0.0072
303.55 K, 101.33 kPa, x1 = 0.1	0.5816 ± 0.0067
303.75 K, 101.33 kPa, x1 = 0.4	0.6426 ± 0.0074
304.15 K, 101.33 kPa, x1 = 0.2	0.6008 ± 0.0069
308.15 K, 101 kPa, x2 = 0.101	0.6704 ± 0.0074
308.15 K, 101 kPa, x2 = 0.2035	0.6518 ± 0.0073
308.15 K, 101 kPa, x2 = 0.3026	0.6334 ± 0.0072
308.15 K, 101 kPa, x2 = 0.4005	0.6181 ± 0.0071
308.15 K, 101 kPa, x2 = 0.5004	0.5983 ± 0.007
308.15 K, 101 kPa, x2 = 0.6014	0.5769 ± 0.0069
308.15 K, 101 kPa, x2 = 0.7008	0.5641 ± 0.0069
308.15 K, 101 kPa, x2 = 0.8048	0.5447 ± 0.0068
308.15 K, 101 kPa, x2 = 0.8995	0.5279 ± 0.0067
313.05 K, 101.33 kPa, x1 = 0.3	0.5636 ± 0.0065
313.15 K, 101 kPa, x1 = 0.0994	0.4872 ± 0.013
313.15 K, 101 kPa, x1 = 0.2021	0.503 ± 0.013
313.15 K, 101 kPa, x1 = 0.2979	0.5205 ± 0.014
313.15 K, 101 kPa, x1 = 0.3973	0.536 ± 0.014
313.15 K, 101 kPa, x1 = 0.5013	0.5551 ± 0.015
313.15 K, 101 kPa, x1 = 0.6023	0.5721 ± 0.015
313.15 K, 101 kPa, x1 = 0.7024	0.5874 ± 0.016
313.15 K, 101 kPa, x1 = 0.8007	0.6056 ± 0.016
313.15 K, 101 kPa, x1 = 0.9047	0.6216 ± 0.017
313.15 K, 101 kPa, x2 = 0.0961	0.6302 ± 0.0057
313.15 K, 101 kPa, x2 = 0.101	0.6317 ± 0.0072
313.15 K, 101 kPa, x2 = 0.193	0.6128 ± 0.0055
313.15 K, 101 kPa, x2 = 0.2	0.597 ± 0.01
313.15 K, 101 kPa, x2 = 0.2035	0.6152 ± 0.0071
313.15 K, 101 kPa, x2 = 0.2907	0.5947 ± 0.0054
313.15 K, 101 kPa, x2 = 0.3026	0.5974 ± 0.007
313.15 K, 101 kPa, x2 = 0.3894	0.5789 ± 0.0053
313.15 K, 101 kPa, x2 = 0.4	0.564 ± 0.01
313.15 K, 101 kPa, x2 = 0.4005	0.5833 ± 0.007
313.15 K, 101 kPa, x2 = 0.4889	0.5763 ± 0.0053
313.15 K, 101 kPa, x2 = 0.5004	0.5662 ± 0.0069
313.15 K, 101 kPa, x2 = 0.5893	0.5475 ± 0.0051
313.15 K, 101 kPa, x2 = 0.6	0.53 ± 0.009
313.15 K, 101 kPa, x2 = 0.6014	0.545 ± 0.0067
313.15 K, 101 kPa, x2 = 0.6906	0.5414 ± 0.005
313.15 K, 101 kPa, x2 = 0.7008	0.5312 ± 0.0067
313.15 K, 101 kPa, x2 = 0.7928	0.5159 ± 0.0048
313.15 K, 101 kPa, x2 = 0.8	0.498 ± 0.009
313.15 K, 101 kPa, x2 = 0.8048	0.5134 ± 0.0066
313.15 K, 101 kPa, x2 = 0.8959	0.5005 ± 0.0047
313.15 K, 101 kPa, x2 = 0.8995	0.4983 ± 0.0065
313.25 K, 101.33 kPa, x1 = 0.1	0.5257 ± 0.0061
313.25 K, 101.33 kPa, x1 = 0.4	0.5837 ± 0.0067
313.35 K, 101.33 kPa, x1 = 0.2	0.5458 ± 0.0063
313.65 K, 101.33 kPa, x1 = 0.7	0.6385 ± 0.0074
322.55 K, 101.33 kPa, x1 = 0.3	0.5132 ± 0.0059
322.75 K, 101.33 kPa, x1 = 0.1	0.478 ± 0.0055
322.85 K, 101.33 kPa, x1 = 0.2	0.4964 ± 0.0057
323.15 K, 101 kPa, x2 = 0.0961	0.5575 ± 0.0051
323.15 K, 101 kPa, x2 = 0.193	0.5432 ± 0.005
323.15 K, 101 kPa, x2 = 0.2907	0.531 ± 0.0049
323.15 K, 101 kPa, x2 = 0.3894	0.5111 ± 0.0048
323.15 K, 101 kPa, x2 = 0.4889	0.5008 ± 0.0047
323.15 K, 101 kPa, x2 = 0.5893	0.4829 ± 0.0046
323.15 K, 101 kPa, x2 = 0.6906	0.4715 ± 0.0045
323.15 K, 101 kPa, x2 = 0.7928	0.4539 ± 0.0044
323.15 K, 101 kPa, x2 = 0.8959	0.4396 ± 0.0042
323.15 K, 101.33 kPa, x1 = 0.4	0.5282 ± 0.0061
